Source: patent publication US20030203414A1, “COMPOUNDS THAT INHIBIT THE INTERACTION BETWEEN SIGNAL-TRANSDUCING PROTEINS AND THE GLGF (PDZ/DHR) DOMAIN AND USES THEREOF” (priority 1999, published 2003)
“Also recorded” adds a separate entry of the source. No end group written: not given here.

Key:
[1] = tested on: Fas/FAP-1 binding; experiment: In vitro inhibition assay of Fas/FAP-1 binding (GST-Fas fusion protein and in vitro-translated 35S-labeled FAP-1); details: for binding of in vitro-translated FAP-1 to GST-Fas: FIG. 3A, GST-Fas (191-355), C-terminal 15 amino acids at 1-1000 μM, human PAMP at 1 mM as negative control
Chain of Fas/FAP-1 binding (Q12923 1361-1456 limits assumed): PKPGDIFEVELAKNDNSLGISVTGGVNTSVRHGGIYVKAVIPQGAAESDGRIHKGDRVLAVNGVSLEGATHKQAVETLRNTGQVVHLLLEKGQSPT
Protocol: HFAP-10 cDNA (Sato, et al. 1995) subcloned into the Bluescript vector pSK-II (Stratagene) was in vitro-translated from an internal methionine codon in the presence of ^35S-L-methionine using a coupled in vitro transcription/translation system (Promega, TNT lysate) and T7 RNA polymerase. The resulting ^35S-labeled protein was incubated with GST-Fas fusion proteins that had been immobilized on […] affinity beads (Pharmacia) in a buffer containing 150 mM NaCl, 50 mM Tris [pH 8.0], 5 mM DTT, 2 mM EDTA, 0.1% NP-40, 1 mM PMSF, 50 μg/ml leupeptin, 1 mM Benzamidine, and 7 μg/ml pepstatin for 16 hours at 4° C. After washing vigorously 4 times in the same buffer, associated proteins were recovered with the glutathione-Sepharose beads by centrifugation, eluted into boiling Laemmli buffer, and analyzed by SDS-PAGE and fluorography.
In vitro-translated [^35]HFAP-1 was purified with a NAP-5 column (Pharmacia) and incubated with 3 μM of GST-fusion proteins for 16 hours at 4° C. After washing 4 times in the binding buffer, radioactivity incorporation was determined in a b counter. The percentage of binding inhibition was calculated as follows: percent inhibition=[radioactivity incorporation using GST-Fas (191-335) with peptides−radioactivity incorporation using GST-Fas (191-320) with peptides]/[radioactivity incorporation using GST-Fas (191-335) without peptides−radioactivity incorporation using GST-Fas (191-320) without peptides]. n=3.

[2] = biological target: T1, binding of FAP-1 to Fas proteins extracted from Jurkat T-cells (Homo sapiens, UniProt Q12923); experiment: Immuno-precipitation of native Fas from Jurkat T-cell extracts with GST-FAP-1, inhibition with tripeptides; details: FIGS. 4C and 4D, Western analysis with anti-Fas monoclonal antibody
T1 construct: made in house; Fas is endogenous in Jurkat T-cell extract
T1 sequence (Q12923 whole entry): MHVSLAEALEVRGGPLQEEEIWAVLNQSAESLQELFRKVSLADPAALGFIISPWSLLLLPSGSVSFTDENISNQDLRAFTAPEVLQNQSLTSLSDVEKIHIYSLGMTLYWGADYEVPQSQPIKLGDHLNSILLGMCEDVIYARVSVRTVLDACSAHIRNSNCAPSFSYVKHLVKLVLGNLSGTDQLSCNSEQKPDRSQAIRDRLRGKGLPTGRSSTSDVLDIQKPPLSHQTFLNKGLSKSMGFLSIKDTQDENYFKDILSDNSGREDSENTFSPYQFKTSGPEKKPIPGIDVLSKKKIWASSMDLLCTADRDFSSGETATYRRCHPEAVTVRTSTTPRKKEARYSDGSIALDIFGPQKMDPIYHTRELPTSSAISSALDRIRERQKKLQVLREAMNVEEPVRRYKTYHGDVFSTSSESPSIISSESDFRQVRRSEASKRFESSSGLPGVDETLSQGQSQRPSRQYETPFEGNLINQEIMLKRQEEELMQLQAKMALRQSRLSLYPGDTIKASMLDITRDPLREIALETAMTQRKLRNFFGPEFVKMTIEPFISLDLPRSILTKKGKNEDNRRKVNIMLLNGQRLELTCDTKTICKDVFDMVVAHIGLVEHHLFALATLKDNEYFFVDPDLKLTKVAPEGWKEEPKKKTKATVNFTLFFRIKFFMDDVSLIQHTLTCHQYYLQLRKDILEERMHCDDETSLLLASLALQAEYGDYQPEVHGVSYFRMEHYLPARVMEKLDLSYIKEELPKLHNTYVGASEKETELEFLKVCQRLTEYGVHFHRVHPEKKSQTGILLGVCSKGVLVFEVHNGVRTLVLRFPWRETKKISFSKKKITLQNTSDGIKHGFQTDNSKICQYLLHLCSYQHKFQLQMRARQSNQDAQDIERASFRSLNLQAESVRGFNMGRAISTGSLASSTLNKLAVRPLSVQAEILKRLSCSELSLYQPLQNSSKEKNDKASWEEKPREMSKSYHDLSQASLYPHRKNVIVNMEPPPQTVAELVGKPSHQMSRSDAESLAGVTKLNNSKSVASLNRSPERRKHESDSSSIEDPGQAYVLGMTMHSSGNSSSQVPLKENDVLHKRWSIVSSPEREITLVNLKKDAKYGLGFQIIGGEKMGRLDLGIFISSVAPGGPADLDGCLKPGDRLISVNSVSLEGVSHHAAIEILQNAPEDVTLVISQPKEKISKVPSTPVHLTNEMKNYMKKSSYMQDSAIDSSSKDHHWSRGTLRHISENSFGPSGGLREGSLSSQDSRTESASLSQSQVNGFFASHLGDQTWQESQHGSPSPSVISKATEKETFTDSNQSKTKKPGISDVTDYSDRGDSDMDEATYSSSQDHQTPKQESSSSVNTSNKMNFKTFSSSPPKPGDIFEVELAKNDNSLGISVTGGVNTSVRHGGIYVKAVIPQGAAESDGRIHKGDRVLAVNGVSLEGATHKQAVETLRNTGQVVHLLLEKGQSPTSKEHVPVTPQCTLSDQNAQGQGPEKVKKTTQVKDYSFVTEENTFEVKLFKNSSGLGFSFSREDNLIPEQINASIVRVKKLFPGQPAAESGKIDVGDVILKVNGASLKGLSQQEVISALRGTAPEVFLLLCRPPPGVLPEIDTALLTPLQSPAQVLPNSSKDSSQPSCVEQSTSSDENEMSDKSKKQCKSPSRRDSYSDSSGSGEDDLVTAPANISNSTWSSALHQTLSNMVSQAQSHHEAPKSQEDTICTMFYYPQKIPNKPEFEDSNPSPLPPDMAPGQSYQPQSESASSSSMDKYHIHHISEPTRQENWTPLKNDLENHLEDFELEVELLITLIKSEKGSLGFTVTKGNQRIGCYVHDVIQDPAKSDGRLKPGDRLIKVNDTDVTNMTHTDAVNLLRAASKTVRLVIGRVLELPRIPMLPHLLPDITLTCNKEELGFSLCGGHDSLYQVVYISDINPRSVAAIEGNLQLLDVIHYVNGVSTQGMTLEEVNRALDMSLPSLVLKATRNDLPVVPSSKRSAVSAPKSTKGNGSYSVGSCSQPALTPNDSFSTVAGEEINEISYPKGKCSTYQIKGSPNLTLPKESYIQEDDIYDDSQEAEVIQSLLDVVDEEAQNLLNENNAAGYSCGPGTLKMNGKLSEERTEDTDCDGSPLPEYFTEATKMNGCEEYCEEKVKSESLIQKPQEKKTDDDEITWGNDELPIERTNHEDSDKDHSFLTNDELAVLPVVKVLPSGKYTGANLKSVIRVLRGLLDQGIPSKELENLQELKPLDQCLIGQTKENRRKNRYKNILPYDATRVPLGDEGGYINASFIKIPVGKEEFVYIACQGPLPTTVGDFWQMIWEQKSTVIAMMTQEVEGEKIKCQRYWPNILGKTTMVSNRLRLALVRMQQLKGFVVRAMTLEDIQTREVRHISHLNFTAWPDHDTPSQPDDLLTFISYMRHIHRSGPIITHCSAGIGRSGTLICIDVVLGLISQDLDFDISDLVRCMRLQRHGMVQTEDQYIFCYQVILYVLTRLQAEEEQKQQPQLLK
Protocol: GST-fusion proteins with or without FAP-1 were incubated with cell extracts from Jurkat T-cells expressing Fas. The bound Fas was detected by Western analysis using anti-Fas monoclonal antibody (F22120, Transduction Laboratories). The tripeptides, Ac-SLV and Ac-SLY were used for the inhibition assay of Fas/FAP-1 binding.

[3] = tested on: DLD-1 human colon cancer cells; experiment: Microinjection of synthetic tripeptides into DLD-1 cells, Fas-induced apoptosis; type: cell-based; details: tripeptide 100 mM microinjected into the cytoplasm; CH11 500 ng/ml; 16 to 20 hours postinjection; condensed chromatin, Hoechst 33342
Protocol: DLD-1 human colon cancer cells were cultured in RPMI 1640 medium containing 10% FCS. For microinjection, cells were plated on CELLocate (Eppendorf) at 1×10^5 cells/2 ml in a 35 mm plastic culture dish and grown for 1 day. Just before microinjection, Fas monoclonal antibodies CH11 (MBL International) was added at the concentration of 500 ng/ml. All microinjection experiments were performed using an automatic microinjection system (Eppendorf transjector 5246, micro-manipulator 5171 and Femtotips) (Pantel, et al. 1995). Synthetic tripeptides were suspended in 0.1% (w/v) FITC-Dextran (Sigma)/K-PBS at the concentration of 100 mM. The samples were microinjected into the cytoplasmic region of DLD-1 cells. Sixteen to 20 hours postinjection, the cells were washed with PBS and stained with 10 μg/ml Hoechst 33342 in PBS. After incubation at 37° C. for 30 minutes, the cells were photographed and the cells showing condensed chromatin were counted as apoptotic.
For each experiment, 25-100 cells were microinjected. Apoptosis of microinjected cells was determined by assessing morphological changes of chromatin using phase contrast and fluorescence microscopy (Wang, et al., 1995; McGahon, et al., 1995). The data are means +/−S.D. for two or three independent determinations.

Substance	inhibitory effect on the binding of FAP-1 to Fas, truncated C-terminal peptides ([1]; FIG. 3B, acetylated synthetic peptides)	binding activity of FAP-1 to Fas proteins extracted from Jurkat T-cells [2]	induction of apoptosis in microinjected DLD-1 cells [3]	binding of in vitro-translated FAP-1 to GST-Fas [1]
Ac-SLV-COOH (Ac-Ser-Leu-Val-OH) [acetylated tripeptide, the three C-terminal amino acids of Fas]	same level of inhibitory effect	abolished in a dose-dependent manner	dramatically induced apoptosis; also recorded: showed condensed chromatin	–
Ac-SLY: acetylated synthetic tripeptide SLY used as a non-binding control (Ac-Ser-Leu-Tyr) [reference compound]	–	not	did not; also recorded: only one cell of the area appeared apoptotic	–
DSENSNFRNEIQSLV (Ac-DSENSNFRNEIQSLV) [synthetic 15 amino acids of Fas, synthetic peptide of the C-terminal 15 amino acids of Fas]	–	–	–	dramatically reduced
human PAMP peptide: N-terminal 20 amino acids of proadrenomedullin, negative control (ARLDVASEFRKKWNKWALSR; ends and bridges not checked; UniProt P35318 22-41, looked up) [reference compound]	–	–	–	had no effect
